Laboratory results as given in ChEMBL document CHEMBL1139653, “Synthesis and biological evaluation of novel hexahydro-pyrido[3',2':4,5]pyrrolo[1,2-a]pyrazines as potent and selective 5-HT(2C) receptor agonists” (Bioorg Med Chem Lett, 2006).

Columns and labels:
[1] = molecular target: 5-hydroxytryptamine receptor 1A (Homo sapiens, UniProt P08908); experiment: Binding affinity to 5HT1A receptor
[2] = molecular target: T1, 5-hydroxytryptamine receptor 2A (Homo sapiens, UniProt P28223); experiment: Displacement of [125I]DOI from human recombinant 5HT2A receptor expressed in CHO cells; type: cell-based
T1 sequence (P28223 whole entry): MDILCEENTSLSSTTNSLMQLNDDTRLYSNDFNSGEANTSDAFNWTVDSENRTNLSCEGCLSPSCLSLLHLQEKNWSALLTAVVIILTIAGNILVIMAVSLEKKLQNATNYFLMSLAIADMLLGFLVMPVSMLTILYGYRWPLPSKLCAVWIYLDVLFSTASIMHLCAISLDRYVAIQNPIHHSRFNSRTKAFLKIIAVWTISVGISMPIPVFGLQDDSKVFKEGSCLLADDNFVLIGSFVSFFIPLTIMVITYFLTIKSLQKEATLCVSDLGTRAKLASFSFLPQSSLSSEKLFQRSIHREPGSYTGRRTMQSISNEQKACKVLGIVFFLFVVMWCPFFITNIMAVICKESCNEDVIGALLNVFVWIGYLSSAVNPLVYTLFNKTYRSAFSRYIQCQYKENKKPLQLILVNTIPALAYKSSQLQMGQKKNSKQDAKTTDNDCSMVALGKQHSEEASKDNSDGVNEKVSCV

[3] = molecular target: 5-hydroxytryptamine receptor 5A (Homo sapiens, UniProt P47898); experiment: Binding affinity to 5HT5A receptor
[4] = molecular target: Sodium-dependent serotonin transporter (Homo sapiens, UniProt P31645); experiment: Binding affinity to 5HT transporter
[5] = molecular target: Beta-1 adrenergic receptor (Homo sapiens, UniProt P08588); experiment: Binding affinity to beta-1 adrenergic receptor
[6] = Binding affinity to sodium channel
[7] = molecular target: T2, 5-hydroxytryptamine receptor 2C (Homo sapiens, UniProt P28335); experiment: Displacement of [3H]5HT from human recombinant 5HT2C receptor expressed in CHO cells; type: cell-based
T2 sequence (P28335 whole entry): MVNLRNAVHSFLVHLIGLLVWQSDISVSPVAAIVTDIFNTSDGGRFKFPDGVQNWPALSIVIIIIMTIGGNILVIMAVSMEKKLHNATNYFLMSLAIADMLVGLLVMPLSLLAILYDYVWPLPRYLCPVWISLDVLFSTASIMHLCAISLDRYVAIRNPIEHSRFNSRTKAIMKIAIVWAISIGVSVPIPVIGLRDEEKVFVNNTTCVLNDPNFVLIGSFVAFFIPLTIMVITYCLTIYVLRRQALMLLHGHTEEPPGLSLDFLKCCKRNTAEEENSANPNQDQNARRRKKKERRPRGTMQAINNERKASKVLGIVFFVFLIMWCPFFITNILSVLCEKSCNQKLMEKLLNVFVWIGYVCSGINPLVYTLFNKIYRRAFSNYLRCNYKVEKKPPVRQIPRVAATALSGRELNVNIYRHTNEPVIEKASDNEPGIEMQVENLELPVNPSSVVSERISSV

[8] = molecular target: 5-hydroxytryptamine receptor 6 (Homo sapiens, UniProt P50406); experiment: Binding affinity to 5HT6 receptor
[9] = molecular target: T3, 5-hydroxytryptamine receptor 2B (Homo sapiens, UniProt P41595); experiment: Efficacy against human recombinant 5HT2B receptor induced intracellular calcium mobilization in CHO cells by FLIPR; type: functional, cell-based
T3 sequence (P41595 whole entry): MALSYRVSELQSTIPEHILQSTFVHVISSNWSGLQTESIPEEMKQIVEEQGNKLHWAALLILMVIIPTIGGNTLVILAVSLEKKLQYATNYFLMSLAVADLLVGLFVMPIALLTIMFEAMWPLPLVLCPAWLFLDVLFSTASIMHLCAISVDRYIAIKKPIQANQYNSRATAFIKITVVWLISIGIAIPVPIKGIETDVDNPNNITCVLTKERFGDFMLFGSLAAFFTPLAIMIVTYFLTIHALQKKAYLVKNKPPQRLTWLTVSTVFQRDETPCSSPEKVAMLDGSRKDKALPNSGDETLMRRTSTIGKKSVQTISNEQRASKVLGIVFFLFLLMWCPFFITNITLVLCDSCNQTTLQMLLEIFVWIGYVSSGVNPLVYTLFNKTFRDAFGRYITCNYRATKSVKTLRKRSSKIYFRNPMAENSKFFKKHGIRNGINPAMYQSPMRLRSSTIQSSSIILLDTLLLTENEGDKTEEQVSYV

[10] = molecular target: T4, 5-hydroxytryptamine receptor 2C (Homo sapiens) (UniProt P28335); experiment: Efficacy against human recombinant 5HT2C receptor expressed in CHO cells at 1 uM in relative to 10 uM 5HT by FLIPR; type: functional, cell-based
T4 sequence (whole entry): T2 sequence (P28335 whole entry)

[11] = molecular target: Sodium-dependent noradrenaline transporter (Homo sapiens, UniProt P23975); experiment: Binding affinity to NA transporter
Chain of Sodium-dependent noradrenaline transporter (P23975 whole entry): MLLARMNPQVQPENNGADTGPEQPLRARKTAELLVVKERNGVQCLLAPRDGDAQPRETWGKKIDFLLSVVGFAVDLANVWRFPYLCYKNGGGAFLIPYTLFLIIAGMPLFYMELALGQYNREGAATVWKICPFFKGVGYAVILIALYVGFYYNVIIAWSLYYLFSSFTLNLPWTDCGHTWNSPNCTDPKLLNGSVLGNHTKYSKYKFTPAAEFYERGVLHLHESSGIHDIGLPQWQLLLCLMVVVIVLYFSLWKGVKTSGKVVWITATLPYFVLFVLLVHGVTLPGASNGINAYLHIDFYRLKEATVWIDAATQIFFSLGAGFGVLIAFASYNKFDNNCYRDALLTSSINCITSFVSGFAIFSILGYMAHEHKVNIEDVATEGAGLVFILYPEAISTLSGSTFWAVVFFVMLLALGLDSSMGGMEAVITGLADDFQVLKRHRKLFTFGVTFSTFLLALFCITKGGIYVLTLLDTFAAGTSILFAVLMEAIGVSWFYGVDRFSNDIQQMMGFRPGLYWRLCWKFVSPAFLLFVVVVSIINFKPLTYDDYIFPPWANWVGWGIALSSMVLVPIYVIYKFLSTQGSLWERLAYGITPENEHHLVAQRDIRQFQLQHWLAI

[12] = molecular target: 5-hydroxytryptamine receptor 1D (Homo sapiens, UniProt P28221); experiment: Binding affinity to 5HT1D receptor
Mu-type opioid receptor = Mu-type opioid receptor (Homo sapiens, UniProt P35372); experiment: Binding affinity to mu type opioid receptor
Chain of Mu-type opioid receptor (P35372 whole entry): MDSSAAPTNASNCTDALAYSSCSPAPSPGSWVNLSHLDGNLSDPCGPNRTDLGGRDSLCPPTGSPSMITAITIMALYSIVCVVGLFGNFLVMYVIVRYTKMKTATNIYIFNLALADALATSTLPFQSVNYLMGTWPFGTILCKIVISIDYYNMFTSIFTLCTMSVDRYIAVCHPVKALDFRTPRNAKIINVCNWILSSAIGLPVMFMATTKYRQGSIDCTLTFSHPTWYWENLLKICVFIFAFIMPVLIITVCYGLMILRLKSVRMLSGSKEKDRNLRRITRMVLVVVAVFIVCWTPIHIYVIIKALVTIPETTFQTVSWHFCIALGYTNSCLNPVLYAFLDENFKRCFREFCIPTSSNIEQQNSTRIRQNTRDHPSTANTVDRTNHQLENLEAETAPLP

D(4) dopamine receptor = D(4) dopamine receptor (Homo sapiens, UniProt P21917); experiment: Binding affinity to D4 receptor
[13] = molecular target: T2, 5-hydroxytryptamine receptor 2C; experiment: Efficacy against human recombinant 5HT2C receptor induced intracellular calcium mobilization in CHO cells by FLIPR
[14] = molecular target: T1, 5-hydroxytryptamine receptor 2A
Description: Binding affinity to human recombinant 5HT2A receptor

[15] = molecular target: T3, 5-hydroxytryptamine receptor 2B; experiment: Displacement of [3H]5HT from human recombinant 5HT2B receptor expressed in CHO cells; type: cell-based
[16] = molecular target: 5-hydroxytryptamine receptor 1B (Homo sapiens, UniProt P28222); experiment: Binding affinity to 5HT1B receptor
[17] = molecular target: Serotonin 3 (5-HT3) receptor; experiment: Binding affinity to 5HT3 receptor; type: protein-complex assay, Homo sapiens
Rattus norvegicus = experiment: Reduction of food intake in po dosed Hooded Lister rat; type: functional; conditions: read-out: MED
[18] = molecular target: 5-hydroxytryptamine receptor 7 (Homo sapiens, UniProt P34969); experiment: Binding affinity to 5HT7 receptor
[19] = molecular target: Voltage-gated inwardly rectifying potassium channel KCNH2 (Homo sapiens, UniProt Q12809); experiment: Inhibition of hERG potassium channel expressed in CHO cells by whole cell patch clamp method; type: toxicity, cell-based
Chain of Voltage-gated inwardly rectifying potassium channel KCNH2 (Q12809 whole entry): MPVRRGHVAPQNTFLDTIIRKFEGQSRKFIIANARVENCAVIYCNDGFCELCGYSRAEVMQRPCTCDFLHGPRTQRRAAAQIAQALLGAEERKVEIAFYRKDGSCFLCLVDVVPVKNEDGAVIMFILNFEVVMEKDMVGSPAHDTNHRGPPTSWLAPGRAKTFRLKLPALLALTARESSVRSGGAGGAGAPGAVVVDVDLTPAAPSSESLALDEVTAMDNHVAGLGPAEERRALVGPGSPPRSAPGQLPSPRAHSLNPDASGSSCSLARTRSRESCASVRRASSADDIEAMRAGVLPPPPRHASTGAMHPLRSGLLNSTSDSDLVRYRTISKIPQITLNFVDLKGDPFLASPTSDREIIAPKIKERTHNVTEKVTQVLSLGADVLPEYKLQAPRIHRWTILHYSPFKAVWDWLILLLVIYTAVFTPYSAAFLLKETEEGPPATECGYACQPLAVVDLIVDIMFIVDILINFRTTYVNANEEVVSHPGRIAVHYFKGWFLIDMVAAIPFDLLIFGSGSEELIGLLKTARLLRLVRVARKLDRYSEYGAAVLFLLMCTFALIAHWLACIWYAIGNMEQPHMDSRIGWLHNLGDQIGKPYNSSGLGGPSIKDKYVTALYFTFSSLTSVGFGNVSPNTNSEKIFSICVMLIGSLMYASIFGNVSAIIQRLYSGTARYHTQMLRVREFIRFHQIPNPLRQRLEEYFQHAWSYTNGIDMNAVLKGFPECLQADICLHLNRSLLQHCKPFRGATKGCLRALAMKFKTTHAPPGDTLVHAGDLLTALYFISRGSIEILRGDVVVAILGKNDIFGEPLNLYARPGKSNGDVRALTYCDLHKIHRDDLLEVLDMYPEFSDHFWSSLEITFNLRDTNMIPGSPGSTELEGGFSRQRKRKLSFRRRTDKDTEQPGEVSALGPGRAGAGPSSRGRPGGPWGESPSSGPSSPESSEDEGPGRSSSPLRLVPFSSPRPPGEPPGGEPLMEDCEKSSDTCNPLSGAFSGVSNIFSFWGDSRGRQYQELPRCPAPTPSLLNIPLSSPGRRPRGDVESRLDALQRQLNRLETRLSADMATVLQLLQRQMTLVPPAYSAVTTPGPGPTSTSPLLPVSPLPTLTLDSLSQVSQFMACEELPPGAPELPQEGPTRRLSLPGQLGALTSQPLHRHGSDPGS

[20] = molecular target: Adrenergic receptor alpha-1 (Homo sapiens, UniProt P35348+P25100+P35368); experiment: Binding affinity to alpha-1 adrenergic receptor; type: protein assay
[21] = molecular target: Sodium-dependent dopamine transporter (Homo sapiens, UniProt Q01959); experiment: Binding affinity to DA transporter
Phospholipidosis [22] = experiment: In vitro phospholipidosis in fibroblasts at 20uM; type: ADME
Phospholipidosis [23] = experiment: In vitro phospholipidosis in fibroblasts at 7.5uM; type: ADME, cell-based; conditions: fibroblast
hERG (KCNH2) = hERG (KCNH2) (Homo sapiens, UniProt Q12809); experiment: Inhibition of hERG potassium channel expressed in CHO cells by whole cell patch clamp method at 10 uM; type: toxicity, cell-based; conditions: CHO cells expressing hERG
Chain of hERG (KCNH2) (Q12809 whole entry): as above

Chain of 5-hydroxytryptamine receptor 1A (P08908 whole entry): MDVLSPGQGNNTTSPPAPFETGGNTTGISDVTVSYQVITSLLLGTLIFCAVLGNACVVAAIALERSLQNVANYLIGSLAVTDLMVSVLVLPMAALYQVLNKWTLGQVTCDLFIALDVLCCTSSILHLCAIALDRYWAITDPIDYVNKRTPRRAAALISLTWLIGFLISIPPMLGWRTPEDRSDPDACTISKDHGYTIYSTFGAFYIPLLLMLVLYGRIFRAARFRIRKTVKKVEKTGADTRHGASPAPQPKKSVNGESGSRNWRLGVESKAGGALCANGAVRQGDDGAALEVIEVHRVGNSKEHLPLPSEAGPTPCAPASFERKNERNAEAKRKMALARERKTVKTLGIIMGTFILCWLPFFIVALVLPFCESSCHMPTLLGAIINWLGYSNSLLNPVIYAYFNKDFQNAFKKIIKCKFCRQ

C[C@@H]1CNC[C@H]2Cc3ccc(COCC4CC4)nc3N21
Ki [1]: > 720 nM | Ki [2]: 74 nM | Ki [3]: > 720 nM | Ki [4]: > 1000 nM | Ki [5]: > 1000 nM | Ki [6]: > 1000 nM | Ki [7]: 3.6 nM | Ki [8]: > 720 nM | EC50 [9]: 23 nM | Emax [9]: 31% | Efficacy [10]: 87% | Ki [11]: > 1000 nM | Ki [12]: > 360 nM | Ki (Mu-type opioid receptor): > 1000 nM | Ki (D(4) dopamine receptor): > 720 nM | EC50 [13]: 15 nM | pKb [14]: 6.7 | Ki [15]: 174 nM | Ki [16]: > 720 nM | Ki [17]: > 1000 nM | minimal effective dose (Rattus norvegicus): 10 mg/kg | Ki [18]: > 1000 nM | IC50 [19]: > 30000 nM | Ki [20]: > 1000 nM | Ki [21]: > 1000 nM | Phospholipidosis (Phospholipidosis [22]): Not Active

C[C@@H]1CNC[C@H]2Cc3ccc(C#N)nc3N21
Ki [2]: 2550 nM | Ki [7]: 60 nM | Efficacy [10]: 85% | Ki [15]: 1820 nM

Clc1ccc2c(n1)N1CCNCC1C2 (centres undefined)
Ki [2]: 217 nM | Ki [7]: 131 nM | Ki [15]: 221 nM

C[C@@H]1CNC[C@H]2Cc3ccc(Br)nc3N21
Ki [2]: 53 nM | Ki [7]: 0.8 nM | Efficacy [10]: 97% | Ki [15]: 81 nM

CCO[C@H](C)c1ccc2c(n1)N1[C@@H](CNC[C@H]1C)C2
Ki [2]: 2380 nM | Ki [7]: 93 nM | Efficacy [10]: 86% | Ki [15]: 1310 nM

COc1ccc2c(n1)N1[C@@H](CNC[C@H]1C)C2
Ki [2]: 511 nM | Ki [7]: 104 nM | Efficacy [10]: 77% | Ki [15]: 440 nM

COCc1ccc2c(n1)N1[C@@H](CNC[C@H]1C)C2
Ki [2]: 565 nM | Ki [7]: 16 nM | Efficacy [10]: 97% | Ki [15]: 379 nM

Cc1c(Cl)ccc2c1N1[C@H](CNC[C@H]1C)C2
Ki [2]: 19 nM | Ki [15]: 40 nM | Phospholipidosis (Phospholipidosis [23]): 7.5 µM

Cc1ccc2c(n1)N1[C@@H](CNC[C@H]1C)C2
Ki [2]: 136 nM | Ki [7]: 2.7 nM | Efficacy [10]: 101% | Ki [15]: 77 nM | IC50 [19]: 21000 nM | Phospholipidosis (Phospholipidosis [22]): Not Active

C[C@H](O)c1ccc2c(n1)N1[C@@H](CNC[C@H]1C)C2
Ki [2]: 392 nM | Ki [7]: 39 nM | Efficacy [10]: 101% | Ki [15]: 835 nM

C[C@@H]1CNC[C@H]2Cc3ccc(C(F)(F)F)nc3N21
Ki [2]: 43 nM | Ki [7]: 14 nM | Efficacy [10]: 96% | Ki [15]: 68 nM

C[C@@H]1CNC[C@@H]2Cc3ccc(Cl)nc3N21
Ki [2]: 54 nM | Ki [7]: 52 nM | Efficacy [10]: 81% | Ki [15]: 217 nM

C[C@@H]1CNC[C@H]2Cc3ccc(Cl)nc3N21
Ki [2]: 42 nM | Ki [7]: 1.6 nM | Efficacy [10]: 98% | Ki [15]: 48 nM | IC50 [19]: 40000 nM

CCO[C@@H](C)c1ccc2c(n1)N1[C@@H](CNC[C@H]1C)C2
Ki [2]: 65 nM | Ki [7]: 2.3 nM | Efficacy [10]: 83% | Ki [15]: 295 nM | inhibition at 10 µM (hERG (KCNH2)): 20%

CC(=O)Nc1ccc2c(n1)N1[C@@H](CNC[C@H]1C)C2
Efficacy [10]: 0%

C[C@@H]1CNC[C@H]2Cc3ccc(CO)nc3N21
Ki [2]: 942 nM | Ki [7]: 54 nM | Efficacy [10]: 88% | Ki [15]: 1140 nM

C[C@@H]1CNC[C@@H]2Cc3ccc(Br)nc3N21
Ki [2]: 58 nM | Ki [7]: 21 nM | Efficacy [10]: 87% | Ki [15]: 166 nM
